No end group written: not given here.
How the values were obtained:
THP-1 cells [1] = assay: Flow cytometric determination of cell death (Annexin V/DAPI); type: cell-based, human; details: 300 μM
Method: FIG. 8. IL1RAP blockade causes cell death of IL1RAP dependent human leukemia cells. THP1 cells were exposed to 300 μM IL1RAP peptides (P1 and P2), scrambled control peptide (scrambled), peptide buffer (vehicle) or left untreated (UT) and evaluated for cell viability determined by Annexin V/DAPI staining and flow cytometry. The results are expressed as percentage of total cells.
In order to determine viability after peptide treatment, 1×10^4 THP-1 cells were washed with PBS and mixed with pre-diluted PE-conjugated Annexin V (BD Pharmigen) and DAPI. Cells were stained at room temperature for 15 minutes and suspended in 0.2 ml of Annexin V-FLUOS incubation buffer (Roche) for analysis.

[2] = system: healthy bone marrow mononuclear cells (BMMNC); assay: Clonogenic assay in methylcellulose, healthy BMMNC; type: cell-based; details: 300 μM for 4 hours, colonies scored at 14 days
Method: FIG. 6. […] BMMNC were exposed to scrambled peptide (scrambled), or IL1RAP peptides (P1 and P2) for 4 hours at 300 μM concentrations or left untreated (UT) and evaluated for colony formation capacity in methylcellulose. Colonies were scored at 14 days. The results are expressed as total number of colonies/5×10^4 plated cells. Error bars represent the standard deviation of two replicates.
Cell viability was assessed at the indicated time points by trypan blue staining and manual cell counts. Viable cells were plated in methylcellulose (StemCell technologies H4434, or R&D HSC002SF) at 1000 cells/ml in 6-well plates for cell lines and at 5×10^4 cells/ml for bone marrow mononuclear cells (BMMNC). Cells were incubated at 37° C. and 5% CO2. Colonies were scored after 7 days or 14 days in culture for cell lines or primary cells, respectively.

THP-1 cells [3] = assay: Cell morphology (cytospin, Diff-Quick staining); type: cell-based, human; details: THP-1 cells that remained viable after 24 hours of treatment
Method: FIG. 9. IL1RAP blockade changes in cell morphology of IL1RAP dependent human leukemia cells. THP1 cells were exposed to 100 μM IL1RAP peptide P2, scrambled control peptide (scrambled), peptide buffer (vehicle) or left untreated and evaluated for cell morphology.
1×10^4 THP-1 cells after treatment with peptides were rinsed with PBS and 0.1 ml of cell suspension was cytospun onto polylysine coated slides at minimum speed for 4 minutes in a cytocentrifuge (StatSpin Cytofuge). Slides were stained according to manufacturer's protocol using the Romanowsky staining Diff-Quick (IMEB) kit. Cells were imaged with an Axiovert 200M microscope (Zeiss) and Olympus SZ61 microscope.

Substance | overall reduction in viability in comparison to the scrambled control peptide (THP-1 cells [1]) | inhibitory effects on healthy control bone marrow mononuclear cells (clonogenic potential) [2] | cell morphology (THP-1 cells [3])
AGDKDRLIVMENKPTHGID [Peptide P2, AGDKDRLIVMENKPTHGID] | 28% | no inhibitory effects | –
AGDKDRLIVMENKPTRPV [Peptide P1, AGDKDRLIVMENKPTRPV] | 14% | no inhibitory effects | –
LKDMPGRPNERDKVAlTV (LKDMPGRPNERDKVAITV; not fully specified) [scrambled peptide] | – | – | maintained a blast-like morphology
